In ChEMBL document CHEMBL3045076, “Influence on Insecticidal Activity of the 3-(3,4-Methylenedioxyphenyl) Group in the 1,4-Benzodioxanyl Moiety of Haedoxan” (1992) one finds LD50 and Activity data, which are given here for four compounds.

Experiment [1] concerns Musca domestica. Briefly: Insecticidal activity against Musca domestica (house fly) assessed as mortality measured per fly. In kind it is functional.
The test system of experiment [2] is Musca domestica. Briefly: Insecticidal activity against Musca domestica (house fly) assessed as increase in mortality. In kind it is functional, organism-based.

Calls of active or inactive are those of the source. The rule behind the calls is not given here.

Take `CCCC[C@H]1Oc2cc(OC)c([C@H]3OC[C@]4(O)[C@@H](Oc5c(OC)cccc5OC)OC[C@H]34)cc2O[C@@H]1COC` (mixture of isomers): in the experiment with Musca domestica [1], the LD50 is 1 µg. On to `COC[C@H]1Oc2cc([C@H]3OC[C@]4(O)[C@@H](Oc5c(OC)cccc5OC)OC[C@H]34)c(OC)cc2O[C@@H]1C` (mixture of isomers), for which, in the experiment on Musca domestica [1], the LD50 came to 1 µg. Turning to `COC[C@H]1Oc2cc([C@H]3OC[C@]4(O)[C@@H](Oc5c(OC)cccc5OC)OC[C@H]34)c(OC)cc2O[C@H]1C` (mixture of isomers), the outcome in the experiment on Musca domestica [2] was inactive. As to `COC[C@H]1Oc2cc([C@H]3OC[C@]4(O)[C@@H](Oc5c(OC)cc6c(c5OC)OCO6)OC[C@H]34)c(OC)cc2O[C@@H]1c1ccc2c(c1)OCO2` [(+)-HAEDOXAN A], the LD50 in the experiment with Musca domestica [1] was 0.00025 µg.
